Biological target: Programmed cell death protein 1/Programmed cell death 1 ligand 1 (Homo sapiens, UniProt Q15116+Q9NZQ7)
Assay: In Vitro Activity Assay: 1) Principle: PD-1 protein is with HIS tag, and PD-1 ligand PD-L1 is with hFc tag. Eu labeled anti-hFc antibody and XL665 labeled anti-HIS antibody are combined with the above two label proteins respectively. After laser excitation, energy can be transferred from donor Eu to receptor XL665, allowing XL665 to glow. […] Reagents should be dispensed in the following order. For 384-well white ELISA plate, 2 μl of diluent or target compound diluted with diluent was added to each well, and then 4 μl of PD-1 protein and 4 μl of PD-L1 protein were added per well, incubated for 15 min at room temperature; and 10 μl of a mixture of anti-Tag1-Eu3+ and anti-Tag2-XL665 was added per well and incubated for 1 h to 4 h at room temperature and the fluorescence signals at 665 nm and 620 nm were measured with an Envison instrument. HTRF rate=(665 nm/620 nm)[…]. 8-10 concentrations were detected for each compound and IC50 was calculated by Graphpad software.
Format: protein-complex assay

Chain of Programmed cell death protein 1/Programmed cell death 1 ligand 1 (Q15116 whole entry): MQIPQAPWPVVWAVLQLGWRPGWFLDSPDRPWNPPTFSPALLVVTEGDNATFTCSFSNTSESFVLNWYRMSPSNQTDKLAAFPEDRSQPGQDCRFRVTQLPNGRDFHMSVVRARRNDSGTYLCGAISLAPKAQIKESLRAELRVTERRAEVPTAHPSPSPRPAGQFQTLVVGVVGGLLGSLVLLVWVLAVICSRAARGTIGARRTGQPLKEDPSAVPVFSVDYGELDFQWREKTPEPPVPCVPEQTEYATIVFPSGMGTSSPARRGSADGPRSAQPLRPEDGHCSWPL
Chain of Programmed cell death protein 1/Programmed cell death 1 ligand 1 (Q9NZQ7 whole entry): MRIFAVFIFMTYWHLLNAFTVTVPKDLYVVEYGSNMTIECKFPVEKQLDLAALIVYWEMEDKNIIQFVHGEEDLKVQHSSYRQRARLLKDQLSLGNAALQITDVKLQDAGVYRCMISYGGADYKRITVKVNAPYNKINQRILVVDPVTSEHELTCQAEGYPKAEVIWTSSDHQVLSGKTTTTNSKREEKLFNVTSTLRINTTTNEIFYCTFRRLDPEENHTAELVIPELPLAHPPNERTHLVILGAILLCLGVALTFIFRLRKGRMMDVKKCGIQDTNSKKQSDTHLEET

In the case of `N#Cc1cccc(COc2cc(OCc3cccc(-c4ccccc4)c3Br)ccc2CN2CCOCC2)c1`, the IC50 is reported as 0.458 µM.
For `CS(=O)(=O)NCCNCc1ccc(OCc2cccc(-c3ccccc3)c2Br)cc1OCc1cccc(C#N)c1`, the IC50 was 0.979 µM.
With `N#Cc1cccc(COc2cc(OCc3cccc(-c4ccccc4)c3Br)c(Cl)cc2CNCCO)c1` the IC50 was 0.00529 µM.
